IC50, Ki and Activity data for 21 molecules are collected here from ChEMBL document CHEMBL4376843 (J Med Chem, 2020).

Test [1] has as its system HCT-116. The test can be described thus: cells. Format: functional, cell-based. Conditions: Homo sapiens, HCT-116, 72 h.
Description: Antiproliferative activity against human HCT116 cells measured after 72 hrs under normoxic condition by MTT assay
The next test deals with Carbonic anhydrase 9 (Homo sapiens, UniProt Q16790).
Test [2] concerns A549. In words: cells. Format: functional, cell-based. Particulars: Homo sapiens, A549, 72 h.
Description: Antiproliferative activity against human A549 cells measured after 72 hrs under normoxic condition by MTT assay
Test [3] relates to HCT-116. In words: cells. Format: functional, cell-based. Conditions: Homo sapiens, HCT-116, 72 h. The source holds these as a separate data set.
Description: Antiproliferative activity against human HCT116 cells measured after 72 hrs under CoCl2-induced hypoxic condition by MTT assay
A further test deals with Carbonic anhydrase 1 (Homo sapiens, UniProt P00915).
For the next test, the target named is Carbonic anhydrase 7 (Homo sapiens, UniProt P43166).
Test [4] relates to HCT-116. In words: Induction of apoptosis in human HCT116 cells assessed as downregulation of Bcl-2 expression at normoxic antiproliferative IC50 measured after 48 hrs by ELISA relative to control. The test is classed as functional.
Another test concerns WI-38. The test can be described thus: Cytotoxicty activity against human WI38 cells measured after 72 hrs by MTT assay. Particulars: WI-38, 72 h. The test is classed as cell-based. (In general: Tetrazolium dyes change colour on reduction, which living cells bring about.)
A further test deals with Carbonic anhydrase 4 (Homo sapiens, UniProt P22748).
For test [5], the system named is A549. The test can be described thus: cells. Conditions: Homo sapiens, A549, 72 h. The test is classed as functional, cell-based. The source holds these as a separate data set.
Description: Antiproliferative activity against human A549 cells measured after 72 hrs under CoCl2-induced hypoxic condition by MTT assay
The target in the next test is Carbonic anhydrase 2 (Homo sapiens, UniProt P00918).
Test [6] concerns PC-3. In words: cells. Format: functional, cell-based. Conditions: Homo sapiens, PC-3, 72 h.
Description: Antiproliferative activity against human PC3 cells measured after 72 hrs under normoxic condition by MTT assay
The test system of test [7] is PC-3. In words: cells. Format: functional, cell-based. Conditions: Homo sapiens, PC-3, 72 h. This is another data set of the same source.
Description: Antiproliferative activity against human PC3 cells measured after 72 hrs under CoCl2-induced hypoxic condition by MTT assay

Sequence of Carbonic anhydrase 1 (P00915 whole entry): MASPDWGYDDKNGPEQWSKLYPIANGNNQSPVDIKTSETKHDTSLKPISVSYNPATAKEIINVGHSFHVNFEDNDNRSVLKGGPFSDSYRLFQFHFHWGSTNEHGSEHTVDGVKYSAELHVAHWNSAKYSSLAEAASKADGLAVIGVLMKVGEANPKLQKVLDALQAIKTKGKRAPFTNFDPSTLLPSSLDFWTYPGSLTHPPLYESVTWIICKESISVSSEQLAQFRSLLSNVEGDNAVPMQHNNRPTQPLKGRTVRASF
Sequence of Carbonic anhydrase 7 (P43166 whole entry): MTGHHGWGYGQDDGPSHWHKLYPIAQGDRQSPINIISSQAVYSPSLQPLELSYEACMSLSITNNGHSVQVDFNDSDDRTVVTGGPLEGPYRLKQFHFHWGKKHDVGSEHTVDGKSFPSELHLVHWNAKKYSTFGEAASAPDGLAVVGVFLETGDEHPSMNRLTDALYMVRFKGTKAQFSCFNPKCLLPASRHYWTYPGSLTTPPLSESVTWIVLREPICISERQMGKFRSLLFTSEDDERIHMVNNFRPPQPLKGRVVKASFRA
Sequence of Carbonic anhydrase 4 (P22748 whole entry): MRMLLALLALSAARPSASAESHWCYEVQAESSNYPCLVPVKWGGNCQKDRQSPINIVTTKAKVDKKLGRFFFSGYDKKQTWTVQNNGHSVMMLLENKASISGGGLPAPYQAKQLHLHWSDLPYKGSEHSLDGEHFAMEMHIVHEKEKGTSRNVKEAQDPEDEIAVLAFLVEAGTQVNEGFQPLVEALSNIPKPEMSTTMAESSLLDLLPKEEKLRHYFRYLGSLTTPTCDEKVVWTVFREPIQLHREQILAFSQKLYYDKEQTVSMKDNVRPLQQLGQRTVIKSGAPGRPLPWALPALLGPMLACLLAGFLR

With `O=C1Nc2ccccc2S(=O)(=O)N1`, the IC50 (as a rule, the concentration that gives 50% inhibition) in the test with HCT-116 [1] is 1300 nM; in the test with A549 [2] it was 3530 nM; in the test on HCT-116 [3], 1500 nM; in the test with WI-38, 39900 nM; in the test on A549 [5] it was 2680 nM; in the test on PC-3 [6] it was 14000 nM. In addition, in the test on PC-3 [7], the IC50 was 12200 nM. The inhibition constant Ki (as a rule, the dissociation constant of the complex between target and ligand, obtained from inhibition or displacement) stood at 78.7 nM on Carbonic anhydrase 9; 866 nM on Carbonic anhydrase 1; 466 nM on Carbonic anhydrase 7; 675 nM on Carbonic anhydrase 4; 150 nM at Carbonic anhydrase 2. The Activity with HCT-116 [4] is on record as 59%.

On to `Cc1ccc(C)c2c1NC(=O)NS2(=O)=O`, for which the Ki on Carbonic anhydrase 9 came out at 368 nM; on Carbonic anhydrase 1, 2540 nM; at Carbonic anhydrase 7, 1900 nM; on Carbonic anhydrase 4, 1430 nM; at Carbonic anhydrase 2, 2190 nM.

Regarding `Cc1cccc2c1NC(=O)NS2(=O)=O`, the inhibition constant Ki at Carbonic anhydrase 9 is 63.9 nM; at Carbonic anhydrase 1, 969 nM; at Carbonic anhydrase 7, 975 nM; on Carbonic anhydrase 4, 1230 nM; at Carbonic anhydrase 2, 144 nM.

Take `O=C1Nc2c(C(=O)O)cccc2S(=O)(=O)N1`: the Ki on Carbonic anhydrase 9 stood at 91.2 nM; at Carbonic anhydrase 1 it was 5780 nM; at Carbonic anhydrase 7, 2800 nM; at Carbonic anhydrase 4, 380 nM; on Carbonic anhydrase 2, 2440 nM.

Take `O=C1Nc2ccc(C(=O)O)cc2S(=O)(=O)N1`: the inhibitory constant (Ki) is 98.7 nM on Carbonic anhydrase 9; more than 10000 nM on Carbonic anhydrase 1; 4960 nM on Carbonic anhydrase 7; 76.1 nM at Carbonic anhydrase 4; 6780 nM at Carbonic anhydrase 2.

Take `O=C1Nc2ccc(O)cc2S(=O)(=O)N1`: the Ki is 88.1 nM at Carbonic anhydrase 9; 1890 nM at Carbonic anhydrase 1; 2560 nM at Carbonic anhydrase 7; 452 nM on Carbonic anhydrase 4; 3020 nM at Carbonic anhydrase 2.

As for `O=C1NS(=O)(=O)c2cccc3c2N1CC3`, the inhibition constant Ki was found to be 273 nM at Carbonic anhydrase 9; 6860 nM on Carbonic anhydrase 1; 1280 nM at Carbonic anhydrase 7; 3890 nM on Carbonic anhydrase 4; 1060 nM on Carbonic anhydrase 2.

Turning to `O=C1Nc2c(F)cccc2S(=O)(=O)N1`, the Ki at Carbonic anhydrase 9 amounted to 58.4 nM; on Carbonic anhydrase 1, 547 nM; at Carbonic anhydrase 7, 126 nM; on Carbonic anhydrase 4, 461 nM; at Carbonic anhydrase 2, 140 nM.

On to `CN1C(=O)NS(=O)(=O)c2cc(Cl)ccc21`, for which the Ki is 189 nM at Carbonic anhydrase 9; more than 10000 nM at Carbonic anhydrase 1; 3240 nM at Carbonic anhydrase 7; 5880 nM at Carbonic anhydrase 4; 2340 nM on Carbonic anhydrase 2.

As for `O=C1Nc2c(ccc3ccccc23)S(=O)(=O)N1`, the Ki came out at 60.2 nM at Carbonic anhydrase 9; 2070 nM on Carbonic anhydrase 1; 3950 nM at Carbonic anhydrase 7; 2670 nM at Carbonic anhydrase 4; 484 nM on Carbonic anhydrase 2.

Consider `CN1C(=O)NS(=O)(=O)c2ccccc21`, for which the IC50 with HCT-116 [1] amounted to 10900 nM; in the test with A549 [2], 19900 nM; in the test with HCT-116 [3], 7130 nM; in the test with WI-38, 40900 nM; in the test on A549 [5], 16300 nM; in the test on PC-3 [6] it was 23800 nM. Also, inhibition in the test on PC-3 [7] was half-maximal at 16900 nM (IC50). Also, the inhibition constant (Ki) at Carbonic anhydrase 9 came to 139 nM; on Carbonic anhydrase 1, 3410 nM; at Carbonic anhydrase 7, 7510 nM; on Carbonic anhydrase 4, 3460 nM; at Carbonic anhydrase 2 it was 853 nM.

Regarding `COc1ccc2c(c1)S(=O)(=O)NC(=O)N2`, the inhibition constant Ki stood at 35.8 nM at Carbonic anhydrase 9; 3810 nM at Carbonic anhydrase 1; 1360 nM at Carbonic anhydrase 7; 1940 nM at Carbonic anhydrase 4; 1920 nM at Carbonic anhydrase 2.

Regarding `Cc1cc(C)c2c(c1)NC(=O)NS2(=O)=O`, the Ki on Carbonic anhydrase 9 turned out to be 408 nM; at Carbonic anhydrase 1 it was 1920 nM; on Carbonic anhydrase 7, 1790 nM; at Carbonic anhydrase 4, 2690 nM; at Carbonic anhydrase 2, 2940 nM.

Take `O=C1Nc2ccc(Br)cc2S(=O)(=O)N1`: the Ki at Carbonic anhydrase 9 came to 31 nM; at Carbonic anhydrase 1 it was 4400 nM; on Carbonic anhydrase 7 it was 468 nM; on Carbonic anhydrase 4 it was 1560 nM; at Carbonic anhydrase 2, 2360 nM.

For the molecule `O=C1Nc2c(Br)cccc2S(=O)(=O)N1`, the Ki at Carbonic anhydrase 9 was 73.3 nM; on Carbonic anhydrase 1, 2320 nM; at Carbonic anhydrase 7, 620 nM; on Carbonic anhydrase 4, 854 nM; on Carbonic anhydrase 2, 527 nM.

For `O=C1Nc2c(Cl)cccc2S(=O)(=O)N1`, the IC50 with HCT-116 [1] amounted to 5260 nM; with A549 [2] it was 10900 nM; in the test with HCT-116 [3], 7570 nM; with WI-38 it was 36600 nM; with A549 [5], 7350 nM; in the test on PC-3 [6], 16200 nM. This molecule also displayed an IC50 in the test on PC-3 [7] of 3520 nM. In addition, the inhibition constant Ki at Carbonic anhydrase 9 is 28.2 nM; on Carbonic anhydrase 1, 930 nM; at Carbonic anhydrase 7, 389 nM; on Carbonic anhydrase 4, 1030 nM; at Carbonic anhydrase 2, 685 nM.

For `Cc1ccc2c(c1)S(=O)(=O)NC(=O)N2`, the Ki on Carbonic anhydrase 9 amounted to 45.8 nM; on Carbonic anhydrase 1, 1070 nM; at Carbonic anhydrase 7, 956 nM; on Carbonic anhydrase 4 it was 897 nM; at Carbonic anhydrase 2 it was 872 nM.

Turning to `O=C1Nc2ccc(F)cc2S(=O)(=O)N1`, the IC50 in the test on HCT-116 [1] turned out to be 3860 nM; in the test with A549 [2], 18300 nM; in the test with HCT-116 [3], 2730 nM; in the test on WI-38, 125000 nM; in the test on A549 [5] it was 15000 nM; in the test with PC-3 [6] it was 12000 nM. Further, the midpoint of inhibition in the test on PC-3 [7], the IC50, lay at 6530 nM. The inhibition constant Ki at Carbonic anhydrase 9 amounted to 19.1 nM; at Carbonic anhydrase 1, 1290 nM; on Carbonic anhydrase 7, 436 nM; on Carbonic anhydrase 4 it was 709 nM; at Carbonic anhydrase 2, 534 nM. Moreover, the Activity in the test with HCT-116 [4] worked out at 42%.

On to `O=C1Nc2ccc(Cl)cc2S(=O)(=O)N1`, for which the Ki was 56.9 nM on Carbonic anhydrase 9; 1860 nM on Carbonic anhydrase 1; 1180 nM at Carbonic anhydrase 7; 1750 nM on Carbonic anhydrase 4; 1140 nM on Carbonic anhydrase 2.

As for `Cc1cc(C)c2c(c1)S(=O)(=O)NC(=O)N2`, the IC50 in the test with HCT-116 [1] came to 3850 nM; with A549 [2], 4770 nM; in the test on HCT-116 [3], 4180 nM; in the test with WI-38 it was 23500 nM; in the test on A549 [5], 5740 nM; with PC-3 [6], 6310 nM. Further, the IC50 with PC-3 [7] came out at 820 nM. In addition, the Ki was 25.8 nM on Carbonic anhydrase 9; 1270 nM at Carbonic anhydrase 1; 691 nM on Carbonic anhydrase 7; 1640 nM on Carbonic anhydrase 4; 764 nM on Carbonic anhydrase 2.

Take `O=C1NS(=O)(=O)c2ccccc21` [SACCHARIN]: at Carbonic anhydrase 1, the Ki was more than 10000 nM.
